Results on 1 molecule are retold here after patent US5059596A, “Azabicyclo compounds” (Roussel Uclaf, priority 1989, dated 1991).

In one test the test system is cyclooxygenase. Nature of the test: inhibition of eicosanoid synthesis by guinea pig peritoneal neutrophils: cyclooxygenase product (TX B2 and 5-HHT) synthesis. It is filed as cell-based. To be noted: [^14 C]-arachidonic acid and calcium ionophore. How it is done:
(§1) The compounds were tested for their activity as inhibitors of the synthesis of eicosanoids by guinea pig peritoneal neutrophils following the addition of [^14 C]-arachidonic acid and calcium ionophore, using a modification of the method published by Harvey et al [J. Pharmacol. Methods, Vol. 9(2), p 147-155 (1983)].

A further test addresses T1, 5-lipoxygenase (Cavia porcellus, UniProt A0A286X958).
T1 construct: synthesis of eicosanoids by guinea pig peritoneal neutrophils; endogenous in cells; host or cells: guinea pig peritoneal neutrophils
T1 sequence (A0A286X958 1-674): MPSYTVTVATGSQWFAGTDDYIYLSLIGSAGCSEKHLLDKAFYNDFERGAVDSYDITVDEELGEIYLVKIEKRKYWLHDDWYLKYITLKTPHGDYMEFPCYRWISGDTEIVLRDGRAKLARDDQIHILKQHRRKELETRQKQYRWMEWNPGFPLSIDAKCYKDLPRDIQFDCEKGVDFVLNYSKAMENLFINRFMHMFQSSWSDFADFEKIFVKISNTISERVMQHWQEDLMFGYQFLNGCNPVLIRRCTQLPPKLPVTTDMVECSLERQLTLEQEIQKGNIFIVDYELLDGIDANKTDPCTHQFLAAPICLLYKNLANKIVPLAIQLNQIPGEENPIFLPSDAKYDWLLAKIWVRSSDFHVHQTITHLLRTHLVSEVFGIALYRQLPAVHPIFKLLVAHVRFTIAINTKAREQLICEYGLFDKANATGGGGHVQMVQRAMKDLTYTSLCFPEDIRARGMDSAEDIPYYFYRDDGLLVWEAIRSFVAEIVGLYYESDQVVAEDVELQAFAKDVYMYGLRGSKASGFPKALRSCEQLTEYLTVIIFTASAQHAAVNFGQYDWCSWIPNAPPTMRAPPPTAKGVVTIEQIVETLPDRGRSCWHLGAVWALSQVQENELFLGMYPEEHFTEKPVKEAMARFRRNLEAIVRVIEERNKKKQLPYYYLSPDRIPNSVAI
Nature of the test: inhibition of eicosanoid synthesis by guinea pig peritoneal neutrophils: 5-lipoxygenase product (5-HETE) synthesis. It is filed as cell-based. The conditions noted are these: [^14 C]-arachidonic acid and calcium ionophore. How it is done: as §1

Like-named read-outs stand apart in the source and are kept apart here.

Broadly, the IC50 is the concentration at which inhibition is half-maximal. With `CCSC12ON=C(c3ccc(OC)cc3)N1C(C)(C)C2(C)C` (stereo not drawn) [compound 4, 3-(p-methoxyphenyl)-5,5,6,6-tetramethyl-7-ethylthio-1-oxa-2,4-diazabicyclo[3.2.0]hept-2-ene], the half-maximal inhibitory concentration (IC50) in the test with cyclooxygenase (5-HHT synthesis, read-out: IC50 (5-HHT)) was 6.3 µM; in the test on cyclooxygenase (TXB2 synthesis, read-out: IC50 (TXB2)), 5 µM; on 5-lipoxygenase it was greater than 100 µM.
